Data on 28 compounds can be found in patent US10280171B2, “Heterocyclic inhibitors of PTPN11” (priority 2016, dated 2019).

Molecules are shown by their SMILES. pIC50: −log10 of the molar value. Structures can show the parent of a compound that is named as a salt. Where two headings read alike, the source gives them in different places.

In general, pIC50 refers to −log10 of the IC50, conventionally taken in molar units.

Assay [1] addresses PTPN11-E76K mutant enzyme (Homo sapiens (Human), UniProt Q06124, E76K). In words: PTPN11 Enzymatic Assay (DiFMUP phosphatase activity). Format: biochemical. The note with it: DiFMUP 50 μM, 30 min preincubation. The procedure: Reaction was initiated by addition of DiFMUP (50 μM) at room temperature in 384-well black plate with a final reaction volume of 20 uL in assay buffer. […] Dose-response curves were analyzed using IC50 regression curve fitting (GeneData Screener). Curves were normalized to a high controls without inhibitor, and low controls without enzyme.

Assay [2] relates to Phospho-ERK levels in KYSE-520 cells. In words: pERK AlphaScreen Protocol. Format: cell-based. As to conditions: read-out: PERK Avg IC50. The procedure: KYSE-520 cells (10 k cells/well) were grown in 384-well plate in 20 uL of medium (RPMI-1640, without phenol red, containing 10% FBS) at 37° C. with 5% CO2 overnight. DMSO (control) or increasing concentrations of compounds were diluted in medium, added to the 384-well plate (5 uL/well, final DMSO concentration of 1%), and cells were then incubated with compounds for 2 hr. Phospho-ERK levels were measured using phospho-ERK1/2 AlphaScreen SureFire (PerkinElmer, TGRESB10K) following manufacturer's recommendations. Dose-response curves were analyzed using IC50 regression curve fitting (GeneData Screener). Curves were normalized to a high control without inhibitor (DMSO only), and low control (1 μM selumetinib).

The mark [3] stands for this setting: PTPN11-E76K Avg IC50, full length PTPN11-E76K mutant enzyme 250 pM.
[4] abbreviates: KYSE-520 cells, 2 hr compound incubation, phospho-ERK1/2 AlphaScreen SureFire.
[5] abbreviates: full length PTPN11-E76K mutant enzyme 250 pM, read-out: PTPN11-E76K Avg IC50.
The mark [6] stands for this setting: Homo sapiens, KYSE-520, 2 h, KYSE-520 cells, 2 hr compound incubation, phospho-ERK1/2 AlphaScreen SureFire.

PTPN11-E76K mutant enzyme, sequence (Q06124 whole entry E76K): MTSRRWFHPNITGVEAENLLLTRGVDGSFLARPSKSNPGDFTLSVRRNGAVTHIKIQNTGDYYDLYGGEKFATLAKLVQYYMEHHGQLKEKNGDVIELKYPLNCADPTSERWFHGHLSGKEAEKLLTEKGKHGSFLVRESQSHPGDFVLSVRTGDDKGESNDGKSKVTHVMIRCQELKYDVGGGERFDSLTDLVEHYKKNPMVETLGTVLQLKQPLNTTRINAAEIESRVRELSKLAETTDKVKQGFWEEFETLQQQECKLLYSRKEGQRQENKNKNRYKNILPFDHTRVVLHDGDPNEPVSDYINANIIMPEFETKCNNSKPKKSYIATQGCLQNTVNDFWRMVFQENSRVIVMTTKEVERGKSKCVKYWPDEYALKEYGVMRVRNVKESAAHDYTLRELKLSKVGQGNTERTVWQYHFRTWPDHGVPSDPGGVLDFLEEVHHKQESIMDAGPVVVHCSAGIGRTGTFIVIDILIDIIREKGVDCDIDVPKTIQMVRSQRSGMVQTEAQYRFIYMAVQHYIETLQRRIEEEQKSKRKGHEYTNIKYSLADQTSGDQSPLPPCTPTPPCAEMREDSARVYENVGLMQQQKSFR

Turning to `NC1C(F)CCC12CCN(c1cnc3c(-c4cccc(Cl)c4Cl)n[nH]c3n1)CC2` (single isomer, unassigned; isomer a) [Example 64A, 8-(3-(2,3-Dichlorophenyl)-1H-pyrazolo[3,4-b]pyrazin-6-yl)-2-fluoro-8-azaspiro[4.5]decan-1-amine, isomer A], the negative-log IC50 (pIC50) in assay [1] (setting [3]) is 7.01; in assay [2] (setting [4]), 7.47.

Take `N[C@@H]1CCCC12CCN(c1cnc3c(-c4ccnc(O)c4Cl)n[nH]c3n1)CC2` [Example 108, (R)-4-(6-(1-Amino-8-azaspiro[4.5]decan-8-yl)-1H-pyrazolo[3,4-b]pyrazin-3-yl)-3-chloropyridin-2-ol trifluoroacetate]: the pIC50 in assay [1] (setting [5]) is 6.14; in assay [2] (Homo sapiens, KYSE-520, 2 h), 5.17.

Regarding `CC1(N)CCN(c2cnc3c(-c4cccc(C(F)(F)F)c4)n[nH]c3n2)CC1` [Example 21, 4-Methyl-1-(3-(3-(trifluoromethyl)phenyl)-1H-pyrazolo[3,4-b]pyrazin-6-yl)piperidin-4-amine], the results for the pIC50 in assay [1] (setting [5]) and in assay [2] (setting [6]) were 6.02 and 6.21, respectively.

As to `NC1C(F)(F)CCC12CCN(c1cnc3c(-c4cccc(Cl)c4Cl)n[nH]c3n1)CC2` (single isomer, unassigned) [Example 65B, 8-(3-(2,3-Dichlorophenyl)-1H-pyrazolo[3,4-b]pyrazin-6-yl)-2,2-difluoro-8-azaspiro[4.5]decan-1-amine], the pIC50 in assay [1] (setting [3]) is 6.33; in assay [2] (setting [4]), 6.78.

As to `CCC1(N)CCN(c2cnc3c(-c4ccnc(N)c4Cl)n[nH]c3n2)CC1` [Example 135, 4-[6-(4-amino-4-ethylpiperidin-1-yl)-1H-pyrazolo[3,4-b]-pyrazin-3-yl]-3-chloropyridin-2-amine], the pIC50 in assay [1] (setting [5]) was 6.28; in assay [2] (setting [6]), 6.91.

`N[C@@H]1COCC12CCN(c1cnc3c(-c4cccnc4Cl)n[nH]c3n1)CC2` [Example 41, (S)-8-(3-(2-chloro-pyridin-3-yl)-1H-pyrazolo[3,4-b]-pyrazin-6-yl)-2-oxa-8-azaspiro[4.5]-decan-4-amine trifluoroacetate]: the pIC50 in assay [1] (setting [5]) is 6.02; in assay [2] (Homo sapiens, KYSE-520, 2 h) it was 6.40.

As for `Cc1ncccc1-c1n[nH]c2nc(N3CCC4(CCC[C@H]4N)CC3)cnc12` [Example 55, (R)-8-(3-(2-methyl-pyridin-3-yl)-1H-pyrazolo[3,4-b]-pyrazin-6-yl)-8-azaspiro[4.5]decan-I -amine], the pIC50 in assay [1] (setting [5]) was 5.94; in assay [2] (setting [6]), 6.15.

For `NC1C(F)(F)CCC12CCN(c1cnc3c(-c4cccc(Cl)c4Cl)n[nH]c3n1)CC2` (single isomer, unassigned; isomer a) [Example 65A, 8-(3-(2,3-Dichlorophenyl)-1H-pyrazolo[3,4-b]pyrazin-6-yl)-2,2-difluoro-8-azaspiro[4.5]decan-1-amine, isomer A], the pIC50 in assay [1] (setting [3]) is 6.63; in assay [2] (setting [6]) it was 7.03.

Take `CC1(N)CCN(c2cnc3c(-c4cccc(Cl)c4)n[nH]c3n2)CC1` [Example 10, 1-(3-(3-chloro-phenyl)-1H-pyrazolo[3,4-b]-pyrazin-6-yl)-4-methylpiperidin-4-amine]: the pIC50 is 6.48 in assay [1] (setting [5]) and 6.76 in assay [2] (setting [6]).

On to `CC1(CN)CCN(c2cnc3c(-c4cccc(Cl)c4)n[nH]c3n2)CC1` [Example 9, (1-(3-(3-chloro-phenyl)-1H-pyrazolo[3,4-b]-pyrazin-6-yl)-4-methylpiperidin-4-yl)methanamine], for which the pIC50 is 6.44 in assay [1] (setting [5]) and 6.32 in assay [2] (setting [6]).

Take `CC1(N)CCN(c2cnc3c(-c4cccc(N)c4Cl)n[nH]c3n2)CC1` [Example 105, 1-(3-(3-amino-2-chlorophenyl)-1H-pyrazolo[3,4-b]pyrazin-6-yl)-4-methylpiperidin-4-amine]: the pIC50 in assay [1] (setting [5]) is 6.72; in assay [2] (setting [6]), 6.92.

As for `NC1(CO)CCN(c2cnc3c(-c4ccnc(O)c4Cl)n[nH]c3n2)CC1` [Example 110, 4-(6-(4-Amino-4-(hydroxymethyl)piperidin-1-yl)-1H-pyrazolo[3,4-b]pyrazin-3-yl)-3-chloropyridin-2-ol], the pIC50 in assay [1] (setting [5]) is 5.43; in assay [2] (setting [6]) it was 5.11.

Consider `NC1C(F)CCC12CCN(c1cnc3c(-c4cccc(Cl)c4Cl)n[nH]c3n1)CC2` (single isomer, unassigned) [Example 64B, 8-(3-(2,3-Dichlorophenyl)-1H-pyrazolo[3,4-b]pyrazin-6-yl)-2-fluoro-8-azaspiro[4.5]decan-1-amine], for which the pIC50 was 6.66 in assay [1] (setting [3]) and 7.15 in assay [2] (setting [4]).

Regarding `CC1(CN)CCN(c2cnc3c(-c4cn[nH]c4C(F)(F)F)n[nH]c3n2)CC1` [Example 103, (4-Methyl-1-(3-(5-(trifluoromethyl)-1H-pyrazol-4-yl)-1H-pyrazolo[3,4-b]-pyrazine-6-yl)piperidin-4-yl)methanamine], the pIC50 in assay [1] (setting [5]) is 5.58; in assay [2] (setting [6]) it was 5.79.

With `CC1(N)CCN(c2cnc3c(-c4ccccc4Cl)n[nH]c3n2)CC1` [Example 20, 1-(3-(2-Chlorophenyl)-1H-pyrazolo[3,4-b]pyrazin-6-yl)-4-methylpiperidin-4-amine], the figures for the pIC50 in assay [1] (setting [5]) and in assay [2] (setting [6]) were 6.49 and 6.80, respectively.

In the case of `Cc1c(Cl)cccc1-c1n[nH]c2nc(N3CCC(C)(CN)CC3)cnc12` [Example 28, (1-(3-(3-chloro-2-methylphenyl)-1H-pyrazolo[3,4-b]-pyrazin-6-yl)-4-methylpiperidin-4-yl) methanamine], the figures for the pIC50 in assay [1] (setting [5]) and in assay [2] (setting [6]) were 6.85 and 6.72, respectively.

For the compound `CC1(CN)CCN(c2cnc3c(-c4cccc(N)c4Cl)n[nH]c3n2)CC1` [Example 132, 3-{6-[4-(amino-methyl)-4-methyl-piperidin-1-yl]-1H-pyrazolo[3,4-b]-pyrazin-3-yl}-2-chloroaniline], the pIC50 in assay [1] (setting [5]) was 6.92; in assay [2] (setting [6]), 7.20.

Turning to `N[C@@H]1CCCC12CCN(c1cnc3c(-c4cccc(Cl)c4F)n[nH]c3n1)CC2` [Example 49, (R)-8-(3-(3-chloro-2-fluorophenyl)-1H-pyrazolo[3,4-b]-pyrazin-6-yl)-8-aza-spiro[4.5]decan-1-amine], the pIC50 is 6.84 in assay [1] (setting [5]) and 7.21 in assay [2] (setting [6]).

For the compound `CC1(N)CCN(c2cnc3c(-c4ccnc(O)c4Cl)n[nH]c3n2)CC1` [Example 117, 4-(6-(4-Amino-4-methylpiperidin-1-yl)-1H-pyrazolo[3,4-b]pyrazin-3-yl)-3-chloropyridin-2-ol], the negative-log IC50 (pIC50) in assay [1] (setting [5]) is 5.71; in assay [2] (setting [6]) it was 5.32.

For the compound `NC1(CF)CCN(c2cnc3c(-c4cccc(Cl)c4Cl)n[nH]c3n2)CC1` [Example 58, 1-(3-(2,3-dichlo-rophenyl)-1H-pyrazolo[3,4-b]-pyrazin-6-yl)-4-(fluoromethyl)-piperidin-4-amine], the figures for the negative-log IC50 (pIC50) in assay [1] (setting [5]) and in assay [2] (setting [6]) were 6.47 and 6.96, respectively.

Turning to `CC1(CN)CCN(c2cnc3c(-c4ccnc(O)c4Cl)n[nH]c3n2)CC1` [Example 118, 4-(6-(4-(Aminomethyl)-4-methylpiperidin-1-yl)-1H-pyrazolo[3,4-b]pyrazin-3-yl)-3-chloropyridin-2-ol], the pIC50 was 5.95 in assay [1] (setting [5]) and 5.08 in assay [2] (setting [6]).

In the case of `Nc1cc(-c2n[nH]c3nc(N4CCC5(CC4)COC[C@H]5N)cnc23)c(Cl)cn1` [Example 137, (4S)-8-[3-(2-amino-5-chloropyridin-4-yl)-1H-pyrazolo[3,4-b]pyrazin-6-yl]-2-oxa-8-azaspiro[4.5]-decan-4-amine], the values for the negative logarithm of the IC50 (pIC50) in assay [1] (setting [5]) and in assay [2] (setting [6]) were 6.30 and 5.99, respectively.

Consider `CNc1nccc(-c2n[nH]c3nc(N4CCC(C)(CN)CC4)cnc23)c1Cl` [Example 104, 4-(6-(4-(Aminomethyl)-4-methylpiperidin-1-yl)-1H-pyrazolo[3,4-b]pyrazin-3-yl)-3-chloro-N-methylpyridin-2-amine], for which the pIC50 in assay [1] (setting [5]) was 7.00; in assay [2] (setting [6]), 7.33.

In the case of `CC1(CN)CCN(c2cnc3c(-c4ccc(Cl)cc4)n[nH]c3n2)CC1` [Example 16], the pIC50 in assay [1] (setting [5]) is 6.77; in assay [2] (setting [6]), 6.51.

Consider `CC1(N)CCN(c2cnc3c(-c4ccc(Cl)cc4)n[nH]c3n2)CC1` [Example 15, 1-(3-(4-Chlorophenyl)-1H-pyrazolo[3,4-b]pyrazin-6-yl)-4-methylpiperidin-4-amine], for which the pIC50 is 6.85 in assay [1] (setting [5]) and 6.99 in assay [2] (setting [6]).

With `COc1cc(-c2n[nH]c3nc(N4CCC(C)(CN)CC4)cnc23)ccc1Cl` [Example 33, (1-(3-(4-Chloro-3-methoxyphenyl)-1H-pyrazolo[3,4-b]pyrazin-6-yl)-4-methylpiperidin-4-yl)methanamine], the negative-log IC50 (pIC50) in assay [1] (setting [5]) is 7.14; in assay [2] (setting [6]), 7.02.

`CC1(N)CCN(c2cnc3c(-c4cccc(F)c4Cl)n[nH]c3n2)CC1` [Example 24, 1-(3-(2-chloro-3-fluorophenyl)-1H-pyrazolo[3,4-b]-pyrazin-6-yl)-4-methyl-piperidin-4-amine]: the figures for the pIC50 in assay [1] (setting [5]) and in assay [2] (setting [6]) were 6.69 and 6.85, respectively.

On to `Nc1cccc(-c2n[nH]c3nc(N4CCC5(CCC[C@H]5N)CC4)cnc23)c1Cl` [Example 131, (1R)-8-[3-(3-amino-2-chlorophenyl)-1H-pyrazolo[3,4-b]-pyrazin-6-yl]-8-aza-spiro[4.5]decan-1-amine], for which the pIC50 in assay [1] (setting [5]) was 7.08; in assay [2] (setting [6]) it was 7.46.
